Target: T1, human recombinant IL-17A (Homo sapiens, UniProt Q16552)
T1 construct: purchased R&D Systems 7955-IL/CF
T1 sequence (Q16552 24-155): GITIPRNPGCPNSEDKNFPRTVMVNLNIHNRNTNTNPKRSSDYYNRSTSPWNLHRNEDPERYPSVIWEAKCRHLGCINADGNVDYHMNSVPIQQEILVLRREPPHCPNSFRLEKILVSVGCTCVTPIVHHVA
Experiment: IL-17A AlphaLISA assay (block binding of IL-17A to its receptor IL-17RA)
Conditions: compounds pre-incubated with the IL-17A for 30 min (indicated by * in Table A); for IC50: read-out: AlphaLISA pIC50 (converted)
In short: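 Compounds pre-incubated 24 h at RT (30 min where flagged) with human IL-17A (7.5 nM stock) before IL-17RA/Fc (5 nM stock), 90 min. Read by AlphaLISA via anti-Fc acceptor and biotin anti-IL-17A/streptavidin donor beads, 680/615 nm. 4-parameter fit; DMSO and 6 μM reference inhibitor as controls; pIC50.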

| SMILES | IC50 [nM] | AlphaLISA pIC50 |
| --- | --- | --- |
| CCc1nocc1C(=O)N[C@H](C(=O)Nc1ccc(-c2c(C)noc2C)cn1)C1CCCCC1 [Example 114, (S)—N-(1-Cyclohexyl-2-((5-(3,5-dimethylisoxazol-4-yl)pyridin-2-yl)amino)-2-oxoethyl)-3-ethylisoxazole-4-carboxamide] | 158 | – |
| Cc1noc(C)c1-c1ccc(NC(=O)[C@@H](NC(=O)c2ccnn2C)C2CCCCCC2)nc1 [Example 115, (S)—N-(1-Cycloheptyl-2-((5-(3,5-dimethylisoxazol-4-yl)pyridin-2-yl)amino)-2-oxoethyl)-1-methyl-1H-pyrazole-5-carboxamide] | 126 | – |
| Cc1nocc1C(=O)N[C@H](C(=O)Nc1ccc(-c2c(C)noc2C)cn1)C1CCCCCC1 [Example 116, (S)—N-(1-Cycloheptyl-2-((5-(3,5-dimethylisoxazol-4-yl)pyridin-2-yl)amino)-2-oxoethyl)-3-methylisoxazole-4-carboxamide] | 63.1 | – |
| Cc1noc(C)c1-c1ccc(NC(=O)[C@@H](NC(=O)c2cnnn2C)C2CCCCCC2)nc1 [Example 117, (S)—N-(1-Cycloheptyl-2-((5-(3,5-dimethylisoxazol-4-yl)pyridin-2-yl)amino)-2-oxoethyl)-1-methyl-1H-1,2,3-triazole-5-carboxamide] | 501 | – |
| CCn1nccc1C(=O)N[C@H](C(=O)Nc1ccc(-c2c(C)noc2C)cn1)C1CCCCC1 [Example 118, (S)—N-(1-Cyclohexyl-2-((5-(3,5-dimethylisoxazol-4-yl)pyridin-2-yl)amino)-2-oxoethyl)-1-ethyl-1H-pyrazole-5-carboxamide] | 158 | – |
| Cc1c(-c2ccc(NC(=O)[C@@H](NC(=O)c3ccnn3C)C3CCCCC3)cc2)ccc(=O)n1C [Example 119, (S)—N-(1-Cyclohexyl-2-((4-(1,2-dimethyl-6-oxo-1,6-dihydropyridin-3-yl)phenyl)amino)-2-oxoethyl)-1-methyl-1H-pyrazole-5-carboxamide] | 501 | – |
| Cc1nonc1C(=O)N[C@H](C(=O)Nc1ccc(-c2c(C)noc2C)cn1)[C@H]1CC[C@H](C)CC1 [Example 120, N—((S)-2-((5-(3,5-Dimethylisoxazol-4-yl)pyridin-2-yl)amino)-1-((1r,4S)-4-methylcyclohexyl)-2-oxoethyl)-4-methyl-1,2,5-oxadiazole-3-carboxamide] | 251 | – |
| Cc1nocc1C(=O)N[C@H](C(=O)Nc1ccc(-c2c(C)noc2C)cn1)C1CCCCC1 [Example 121, (S)—N-(1-Cyclohexyl-2-((5-(3,5-dimethylisoxazol-4-yl)pyridin-2-yl)amino)-2-oxoethyl)-3-methylisoxazole-4-carboxamide] | 251 | – |
| CCn1nccc1C(=O)N[C@H](C(=O)Nc1ccc(-c2c(C)noc2C)cn1)C1CCCCCC1 [Example 122, (S)—N-(1-Cycloheptyl-2-((5-(3,5-dimethylisoxazol-4-yl)pyridin-2-yl)amino)-2-oxoethyl)-1-ethyl-1H-pyrazole-5-carboxamide] | 39.8 | – |
| Cc1noc(C)c1-c1ccc(NC(=O)[C@@H](NC(=O)c2ccnn2C(C)C)C2CCCCCC2)nc1 [Example 123, (S)—N-(1-Cycloheptyl-2-((5-(3,5-dimethylisoxazol-4-yl)pyridin-2-yl)amino)-2-oxoethyl)-1-isopropyl-1H-pyrazole-5-carboxamide] | 39.8 | – |
| CCc1nocc1C(=O)N[C@H](C(=O)Nc1ccc(-c2c(C)noc2C)cn1)C1CCCCCC1 [Example 124, (S)—N-(1-Cycloheptyl-2-((5-(3,5-dimethylisoxazol-4-yl)pyridin-2-yl)amino)-2-oxoethyl)-3-ethylisoxazole-4-carboxamide] | 39.8 | – |
| Cc1nnn(C)c1-c1ccc(NC(=O)[C@@H](NC(=O)c2ccnn2C)[C@H]2CC[C@H](C)CC2)nc1 [Example 125, N—((S)-2-((5-(1,4-Dimethyl-1H-1,2,3-triazol-5-yl)pyridin-2-yl)amino)-1-((1r,4S)-4-methylcyclohexyl)-2-oxoethyl)-1-methyl-1H-pyrazole-5-carboxamide] | – | 6.8* |
| CCn1nccc1C(=O)N[C@H](C(=O)Nc1ccc(-c2c(C)cnn2C)cn1)[C@H]1CC[C@H](C)CC1 [Example 126, N—((S)-2-((5-(1,4-Dimethyl-1H-pyrazol-5-yl)pyridin-2-yl)amino)-1-((1r,4S)-4-methylcyclohexyl)-2-oxoethyl)-1-ethyl-1H-pyrazole-5-carboxamide] | 50.1 | – |
| CCc1nocc1C(=O)N[C@H](C(=O)Nc1ccc(-c2c(C)cnn2C)cn1)[C@H]1CC[C@H](C)CC1 [Example 127, N—((S)-2-((5-(1,4-Dimethyl-1H-pyrazol-5-yl)pyridin-2-yl)amino)-1-((1r,4S)-4-methylcyclohexyl)-2-oxoethyl)-3-ethylisoxazole-4-carboxamide] | 39.8 | – |
| Cc1nonc1C(=O)N[C@H](C(=O)Nc1ccc(-c2c(C)noc2C)cn1)C1CCCCCC1 [Example 128, (S)—N-(1-Cycloheptyl-2-((5-(3,5-dimethylisoxazol-4-yl)pyridin-2-yl)amino)-2-oxoethyl)-4-methyl-1,2,5-oxadiazole-3-carboxamide] | 251 | – |
| Cc1noc(C)c1-c1ccc(NC(=O)[C@@H](NC(=O)c2ccnn2C)C2CCCCC2)nc1 [Example 129, (S)—N-(1-Cyclohexyl-2-((5-(3,5-dimethylisoxazol-4-yl)pyridin-2-yl)amino)-2-oxoethyl)-1-methyl-1H-pyrazole-5-carboxamide] | 316 | – |
| Cc1noc(C)c1-c1ccc(NC(=O)[C@@H](NC(=O)c2ccc3n2CCNC3)C2CCCCC2)nc1 [Example 130, (S)—N-(1-Cyclohexyl-2-((5-(3,5-dimethylisoxazol-4-yl)pyridin-2-yl)amino)-2-oxoethyl)-1,2,3,4-tetrahydropyrrolo[1,2-a]pyrazine-6-carboxamide] | 316 | – |
| Cc1cnn(C)c1-c1ccc(NC(=O)[C@@H](NC(=O)c2conc2C)[C@H]2CC[C@H](C)CC2)nc1 [Example 131, N—((S)-2-((5-(1,4-Dimethyl-1H-pyrazol-5-yl)pyridin-2-yl)amino)-1-((1r,4S)-4-methylcyclohexyl)-2-oxoethyl)-3-methylisoxazole-4-carboxamide] | 63.1 | – |
| Cc1cnn(C)c1-c1ccc(NC(=O)[C@@H](NC(=O)c2ccnn2C)C2CCCCCC2)nc1 [Example 132, (S)—N-(1-Cycloheptyl-2-((5-(1,4-dimethyl-1H-pyrazol-5-yl)pyridin-2-yl)amino)-2-oxoethyl)-1-methyl-1H-pyrazole-5-carboxamide] | 79.4 | – |
| Cc1cnn(C)c1-c1ccc(NC(=O)[C@@H](NC(=O)c2cnnn2C)C2CCCCCC2)nc1 [Example 133, (S)—N-(1-Cycloheptyl-2-((5-(1,4-dimethyl-1H-pyrazol-5-yl)pyridin-2-yl)amino)-2-oxoethyl)-1-methyl-1H-1,2,3-triazole-5-carboxamide] | 251 | – |
| Cc1cnn(C)c1-c1ccc(NC(=O)[C@@H](NC(=O)c2nonc2C)C2CCCCCC2)nc1 [Example 134, (S)—N-(1-Cycloheptyl-2-((5-(1,4-dimethyl-1H-pyrazol-5-yl)pyridin-2-yl)amino)-2-oxoethyl)-4-methyl-1,2,5-oxadiazole-3-carboxamide] | 200 | – |
| Cc1noc(C)c1-c1ncc(NC(=O)[C@@H](NC(=O)c2ccnn2C)[C@H]2CC[C@H](C)CC2)cn1 [Example 135, N—((S)-2-((2-(3,5-dimethylisoxazol-4-yl)pyrimidin-5-yl)amino)-1-((1r,4S)-4-methylcyclohexyl)-2-oxoethyl)-1-methyl-1H-pyrazole-5-carboxamide] | 398 | – |
| Cc1cnn(C)c1-c1ccc(NC(=O)[C@@H](NC(=O)c2conc2C)C2CCCCCC2)nc1 [Example 136, (S)—N-(1-Cycloheptyl-2-((5-(1,4-dimethyl-1H-pyrazol-5-yl)pyridin-2-yl)amino)-2-oxoethyl)-3-methylisoxazole-4-carboxamide] | 63.1 | – |
| COCc1nocc1C(=O)N[C@H](C(=O)Nc1ccc(-c2c(C)cnn2C)cn1)C1CCCCCC1 [Example 137, (S)—N-(1-Cycloheptyl-2-((5-(1,4-dimethyl-1H-pyrazol-5-yl)pyridin-2-yl)amino)-2-oxoethyl)-3-(methoxymethyl)isoxazole-4-carboxamide] | 200 | – |
| Cc1noc(C)c1-c1ccc(NC(=O)[C@@H](NC(=O)c2ccnn2C)[C@H]2CC[C@H](C)CC2)cn1 [Example 138, N—((S)-2-((6-(3,5-dimethylisoxazol-4-yl)pyridin-3-yl)amino)-1-((1r,4S)-4-methylcyclohexyl)-2-oxoethyl)-1-methyl-1H-pyrazole-5-carboxamide] | 251 | – |
| CCn1nccc1C(=O)N[C@H](C(=O)Nc1ccc(-c2c(C)c[n+]([O-])cc2C)cn1)[C@H]1CC[C@H](C)CC1 [Example 139, 6-((S)-2-(1-Ethyl-1H-pyrazole-5-carboxamido)-2-((1r,4S)-4-methylcyclohexyl)acetamido)-3′,5′-dimethyl-[3,4′-bipyridine]1′-oxide] | 126 | – |
| CCc1nocc1C(=O)N[C@H](C(=O)Nc1ccc(-c2ncncc2C)cn1)[C@H]1CC[C@H](C)CC1 [Example 140, 3-Ethyl-N—((S)-1-((1r,4S)-4-methylcyclohexyl)-2-((5-(5-methylpyrimidin-4-yl)pyridin-2-yl)amino)-2-oxoethyl)isoxazole-4-carboxamide] | 631 | – |
| CCn1nncc1C(=O)N[C@H](C(=O)Nc1ccc(-c2c(C)cnn2C)cn1)C1CCCCCC1 [Example 141, (S)—N-(1-Cycloheptyl-2-((5-(1,4-dimethyl-1H-pyrazol-5-yl)pyridin-2-yl)amino)-2-oxoethyl)-1-ethyl-1H-1,2,3-triazole-5-carboxamide] | 158 | – |

Source: US20230227427A1, “IL-17A MODULATORS” (SANOFI, priority 2010, published 2023)
